The target in assay [1] is T1, 5 alpha reductase type I (Homo sapiens, UniProt P18405).
T1 construct: made in house; host or cells: genetically modified yeast
T1 sequence (P18405 1-259): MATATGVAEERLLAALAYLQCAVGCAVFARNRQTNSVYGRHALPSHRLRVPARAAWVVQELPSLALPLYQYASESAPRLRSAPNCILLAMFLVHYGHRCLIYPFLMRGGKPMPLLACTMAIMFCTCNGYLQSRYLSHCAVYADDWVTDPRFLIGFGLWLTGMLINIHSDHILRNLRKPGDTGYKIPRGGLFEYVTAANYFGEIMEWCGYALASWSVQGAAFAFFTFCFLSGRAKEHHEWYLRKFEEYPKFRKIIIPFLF
Briefly: Type I 5 alpha reductase inhibition (14C testosterone conversion). As to conditions: pH 7.0. The assay is classed as biochemical. Here is the method:
Determination of the 5 alpha reductase inhibitory activities by Syringa vulgaris extracts, verbascoside and isoverbascoside in comparison to Serenoa repens extracts. Said determination, has been performed using enzymes (5 alpha reductase, type I and type II) produced by genetically modified yeast. Enzyme activities have been determined in the presence of Syringa vulgaris and Serenoa repens extracts, verbascoside isoverbascoside.
Type I 5 alpha reductase activity has been assayed by incubating the enzyme in 0.1M Tris-citrate buffer (pH 7.0), containing 5 μM (^14C) radio-labelled testosterone (Amersham, Sweden) and 5 mM NADPH (Sigma) in a final volume of 5 ml. The solution thus obtained has been incubated for 1 hour at 37° C.
In both assays, the steroids have been extracted using 5 ml of methylene chloride. The extracts have then been dried under a stream of nitrogen and the dried residues obtained have, been dissolved in 20 μl of a chloroform-methanol mixture (2:1 v/v). […] For quantification of the results, the spots have been scraped from the TLC plate and extracted with 2 ml of ethyl acetate. The extracts obtained have been analysed, using scintillation fluid, with the aid of a Wallach […]. The enzyme activity has been calculated from the percentage conversion (C %) of the substrate into final product:
C %=[counted product/(counted substrate+product)]×100.

Assay [2] is described as follows: Metal chelating activity (spectrophotometric), Fe2+. As to conditions: chelation equilibrium constant, calculated for a pure phenylpropanoid. The assay is classed as binding. The source says: (§1) The chelating activities of Syringa vulgaris extracts, verbascoside and isoverbascoside in relation to Fe^2+, Fe^3+, Cu^2+ and Ni^2+ metal ions has been determined by means of spectrophotometric measurements using a Shimadzu 1770 UV spectrophotometer. The activities of chelating agents depends on the association constant (equilibrium) of their reactions with the metals according to the following reaction:
(§2) [formula] wherein Keq is the equilibrium constant equal to the ratio of concentrations at equilibrium of a complex and product of equilibrium concentrations of metal ions and a chelator:
(§3) [formula] The method used for determining chelating activity is well documented in the literature (Korkina L G, Afarras'er IB. Antioxidant and chelating properties of flavonoids. Adv. Pharmacol., 1997, 38:151-63). The results are expressed as Keg (M^−1) calculated for a pure phenylpropanoid. This way the chelating activity against ferrous (Fe II), ferric (Fe III), copper (Cu II) and nickel ions has been calculated.

The subject of assay [3] is tyrosinase. Description: Tyrosinase inhibition, conversion of L-DOPA to DOPAquinone. It is filed as biochemical, Mushroom. The settings on record: 100 μg/ml. The source says:
The enzyme tyrosinase catalyses the reactions leading to melanin biosynthesis from tyrosine. […] Substances inhibiting tyrosinase activity produce clearing/bleaching effect on the skin, since they block melanin synthesis. The method used to determine the inhibition of tyrosinase activity in the oxidation reaction of L-tyrosine to L-DOPA is that described in Kim et al. […] Biol. Pharm. Bull. 28(2), 323-327, 2005). The method applied for determination of the inhibition of tyrosinase activity in the conversion of L-DOPA to DOPAquinone is that described in Masamoto et al. (Mushroom tyrosinase inhibitory activity of esculetin isolated from seeds of Euphorbia lathyris L. Biosci. Biotechnol. Biochem., 67(3), 631-634, 2003).

Assay [4] concerns whole blood. Description: Whole blood luminol dependent chemiluminescence. It is filed as cell-based. The settings on record: 0.5 h; fresh human blood, 30 minutes, 37° C.; read-out: Whole blood chemiluminescence (IC 50 mg/ml). The procedure: Anti-inflammatory activity has been assessed by measuring luminol dependent chemiluminescence generated by free radicals released from whole blood and from white blood cells. The assay has been performed using the following protocol: 10 μl of fresh human blood is mixed with 0.980 ml of Hanks saline solution containing 5×10^−5 M luminol and the test sample (at various concentrations). The chemiluminescent response is recorded continuously for 30 minutes at a temperature of 37° C. The results are expressed as IC50 (mg/ml), i.e. as the minimum sample, concentration inhibiting chemiluminescence by 50% with respect to the control. To isolate white blood cells (WBC) from whole blood one proceeds in the following manner: 1 ml of fresh blood is layered onto a Hipaque gradient (p=1.119) and centrifuged at 250×g for 60 minutes at room temperature. Following centrifugation, the pellet containing the white blood cells is washed twice, using a large volume of cold Hanks saline solution. Finally, the washed WBCs are resuspended in 01 ml di HBSS containing foetal calf serum. 10^6 WBC are added to a chemiluminometer cuvette. 10 μl of PMA (final concentration equal to 10 nM) are added to induce the formation of free radicals. The chemiluminescent response is recorded continuously for 30 minutes at a temperature of 37° C. […]

A short description of assay [5]: Metal chelating activity (spectrophotometric), Ni2+. The assay is classed as binding. The settings on record: chelation equilibrium constant, calculated for a pure phenylpropanoid.
Text: as §1, §2, §3

The values below come from US10456434B2, “Extracts obtained from cell line cultures from plants belonging to the Oleaceae family (e.g. Syringa vulgaris), their preparation and use” (CRODA ITALIANA S. P. A., priority 2005, dated 2019).

The structures appear in SMILES notation. Values after ≈ are worked out from the molar mass of the structure shown.

`CC1OC(OC2C(O)C(COC(=O)C=Cc3ccc(O)c(O)c3)OC(OCCc3ccc(O)c(O)c3)C2O)C(O)C(O)C1O` [Isoverbascoside, b-(3,4-dihydroxyphenyl)-ethyl-O-α-L-ramnopyranosyl(1″-3′)-b-D-(6′-O-caffeoil)glucopyranoside]: the IC50 is 19.2 µM in assay [1] and 1.3 mg/mL (≈ 2080 µM) in assay [4]. Further, the “Fe^2+ (Keq, M^−1)” value in assay [2] is 460000 ± 120000 M⁻¹. Further, the “Test LDOPA-DOPAquinone inhibitory activity (%)” value in assay [3] was found to be 10%. Also, the “Ni^2+ (Keq, M^−1)” value in assay [5] is 1398 ± 362 M⁻¹.
On the same counts, the results for `C[C@@H]1O[C@@H](O[C@@H]2[C@@H](O)[C@H](OCCc3ccc(O)c(O)c3)O[C@H](CO)[C@H]2OC(=O)/C=C/c2ccc(O)c(O)c2)[C@H](O)[C@H](O)[C@H]1O` [Verbascoside, b-(3,4-dihydroxyphenyl)-ethyl-O-α-L-ramnopyranosyl (1″-3′)-b-D-(4′-O-caffeoil)-glucopyranoside] are 20.8 µM, 1.29 mg/mL (≈ 2070 µM), 450000 ± 110000 M⁻¹, 20.6% and 1427 ± 319 M⁻¹.
